One may read the IC50 as the concentration needed to halve the response being measured. A lower IC50 goes with greater potency in that assay.

The values that follow come from ChEMBL document CHEMBL2434841, “Computational neural network analysis of the affinity of 2-pyridyl-3,5-diaryl pyrroles analogs for the human glucagon receptor using density functional theory” (Med Chem Res, 2013).

In the test the target is Glucagon receptor (Homo sapiens, UniProt P47871). Briefly: Antagonist activity at human glucagon receptor.
Chain of Glucagon receptor (P47871 whole entry): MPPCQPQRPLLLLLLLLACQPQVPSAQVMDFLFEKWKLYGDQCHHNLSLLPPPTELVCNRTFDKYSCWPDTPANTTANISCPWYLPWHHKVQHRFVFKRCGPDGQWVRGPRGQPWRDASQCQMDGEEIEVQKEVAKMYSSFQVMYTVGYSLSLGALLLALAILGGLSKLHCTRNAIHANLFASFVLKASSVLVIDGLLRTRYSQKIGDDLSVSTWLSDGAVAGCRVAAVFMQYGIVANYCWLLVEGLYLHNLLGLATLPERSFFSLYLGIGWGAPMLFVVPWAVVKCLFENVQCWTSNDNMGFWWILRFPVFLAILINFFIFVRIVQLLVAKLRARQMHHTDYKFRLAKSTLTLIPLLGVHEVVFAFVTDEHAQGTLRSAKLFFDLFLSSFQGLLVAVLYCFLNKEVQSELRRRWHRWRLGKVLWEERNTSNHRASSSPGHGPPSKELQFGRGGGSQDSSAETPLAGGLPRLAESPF

Each structure is given as a SMILES string.

For the compound `COc1ccccc1-c1cc(-c2ccc(Cl)cc2)[nH]c1-c1ccncc1`, the 50% inhibitory concentration (IC50) is 2650 nM. Turning to `Fc1ccc(-c2cc(C3CCCCC3)[nH]c2-c2ccncc2)cc1`, the IC50 was 180 nM. Compared with the last compound, the IC50 is about 15-fold lower.

For `CCOc1ccccc1-c1cc(-c2ccc(Cl)cc2)[nH]c1-c1ccncc1`, the half-maximal inhibitory concentration (IC50) was 14200 nM. Turning to `O=[N+]([O-])c1ccc(-c2cc(-c3ccc(F)cc3)c(-c3ccncc3)[nH]2)cc1`, the 50% inhibitory concentration (IC50) was 50 nM.

For the compound `N#Cc1ccc(-c2cc(-c3ccc(F)cc3)c(-c3ccncc3)[nH]2)cc1`, half-maximal inhibition (IC50) required 50 nM. As for `C[S+]([O-])c1ccc(C2=NC(c3ccncc3)=C(c3ccc(F)cc3)C2)cc1` (stereo not drawn), half-maximal inhibition (IC50) required 671 nM.

`CCCOc1ccc(Br)cc1-c1cc(-c2ccc(Cl)cc2)[nH]c1-c1ccncc1` gave an IC50 of 1440 nM. Then `CC(C)COc1ccccc1-c1cc(-c2ccc(Cl)cc2)[nH]c1-c1ccncc1`, with 3770 nM; and `Cc1cc(-c2ccc(F)cc2)c(-c2ccncc2)[nH]1`, with 321 nM.

For `COc1cccc(-c2cc(-c3ccc(Cl)cc3)[nH]c2-c2ccncc2)c1`, the half-inhibitory concentration (IC50) is 421 nM.

In turn, `Clc1ccc(-c2cc(-c3ccccc3)c(-c3ccncc3)[nH]2)cc1` had a half-inhibitory concentration (IC50) of 210 nM. `CCOC(=O)c1ccc(-c2cc(-c3ccc(F)cc3)c(-c3ccncc3)[nH]2)cc1` gave a half-inhibitory concentration (IC50) of 260 nM.

`Nc1ccc(-c2cc(-c3ccc(F)cc3)c(-c3ccncc3)[nH]2)cc1` gave an IC50 of 190 nM. In the case of `Fc1ccc(-c2cc(-c3ccc(Cl)cc3Cl)[nH]c2-c2ccncc2)cc1`, the concentration for half-maximal inhibition (IC50) is 421 nM. `Fc1ccc(-c2cc(-c3ccccc3)[nH]c2-c2ccncc2)cc1` showed an IC50 of 802 nM. Then `Clc1ccc(-c2cc(-c3ccccc3Br)c(-c3ccncc3)[nH]2)cc1`, with 1000 nM; and `CSc1ccc(C2=NC(c3ccncc3)=C(c3ccc(F)cc3)C2)cc1`, with 1230 nM.

The compound `COc1ccc(-c2cc(-c3ccc(F)cc3)c(-c3ccncc3)[nH]2)cc1` gave an IC50 of 2810 nM.

On to `COc1ccc(-c2cc(-c3ccc(Cl)cc3)[nH]c2-c2ccncc2)cc1`, for which the concentration for half-maximal inhibition (IC50) is 1150 nM. Under `O=C(O)c1ccc(-c2cc(-c3ccc(F)cc3)c(-c3ccncc3)[nH]2)cc1` stands 90.2 nM; under `Fc1ccc(-c2cc(-c3ccc(Cl)cc3)[nH]c2-c2ccncc2)cc1`, 1400 nM; under `C[S+]([O-])c1ccc(-c2cc(-c3ccncc3)c(-c3ccc(F)cc3)[nH]2)cc1` (stereo not drawn), 5.31 nM. Then `Fc1ccc(-c2cc(-c3ccc(F)cc3)c(-c3ccncc3)[nH]2)cc1`, with 340 nM; and `Clc1ccc(-c2cc(-c3ccc(Cl)cc3)c(-c3ccncc3)[nH]2)cc1`, with 160 nM; and `Clc1ccc(-c2cc(-c3cccc(Br)c3)c(-c3ccncc3)[nH]2)cc1`, with 80.2 nM. Under `Clc1ccc(-c2cc(-c3ccc(Br)cc3)c(-c3ccncc3)[nH]2)cc1` stands 301 nM; under `CCCOc1ccccc1-c1cc(-c2ccc(Cl)cc2)[nH]c1-c1ccncc1`, 2840 nM; under `C=CCOc1ccccc1-c1cc(-c2ccc(Cl)cc2)[nH]c1-c1ccncc1`, 4740 nM. On to `Cc1ccc(-c2cc(-c3ccc(F)cc3)c(-c3ccncc3)[nH]2)cc1`, for which the IC50 was 1690 nM. Regarding `CSc1ccc(-c2cc(-c3ccncc3)c(-c3ccc(F)cc3)[nH]2)cc1`, the IC50 is 44.1 nM. The compound `Fc1ccc(-c2cc(-c3cccc(Cl)c3)[nH]c2-c2ccncc2)cc1` had a 50% inhibitory concentration (IC50) of 421 nM. Consider `CCc1ccc(-c2cc(-c3ccc(F)cc3)c(-c3ccncc3)[nH]2)cc1`, for which it took 1360 nM to reach half-maximal inhibition (IC50).

In the case of `Fc1ccc(-c2cc[nH]c2-c2ccncc2)cc1`, the IC50 was 160 nM. This IC50 is about 8.5-fold lower than that of the compound before.
